# Literature values, collected in patent US20060286183A1, “Diet supplement for causing rapid weight loss, controlling appetite, managing stress, supporting relaxation, combating fatigue and supporting mental well-being” (priority 2005, published 2006).
# Columns and labels:
# [1] = animals
# [2] = humans
# [3] = tested on: 5-alpha-reductase
# [4] = in vivo
# [5] = compared with vitamin C and E
# [6] = lean and obese rats
# [7] = target: T1, catechol-O-methyl-transferase (COMT) (Homo sapiens, UniProt P21964)
# T1 sequence (P21964 1-271): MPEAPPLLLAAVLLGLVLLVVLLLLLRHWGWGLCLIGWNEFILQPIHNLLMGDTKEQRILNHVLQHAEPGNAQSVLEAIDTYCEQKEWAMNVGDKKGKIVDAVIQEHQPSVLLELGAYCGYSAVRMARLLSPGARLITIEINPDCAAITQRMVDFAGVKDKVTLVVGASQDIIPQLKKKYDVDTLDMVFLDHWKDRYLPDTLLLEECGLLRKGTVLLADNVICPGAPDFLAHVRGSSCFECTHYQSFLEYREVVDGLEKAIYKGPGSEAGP
# [8] = target: glutamate dehydrogenase (Homo sapiens, UniProt P00367)
# [9] = rats
# [10] = tested on: ATP; conditions: calorie restriction
# [11] = rats; remark: listed apart in the source
# [12] = target: T2, ATP:citrate lyase (Homo sapiens, UniProt P53396)
# T2 sequence (P53396 1-1101): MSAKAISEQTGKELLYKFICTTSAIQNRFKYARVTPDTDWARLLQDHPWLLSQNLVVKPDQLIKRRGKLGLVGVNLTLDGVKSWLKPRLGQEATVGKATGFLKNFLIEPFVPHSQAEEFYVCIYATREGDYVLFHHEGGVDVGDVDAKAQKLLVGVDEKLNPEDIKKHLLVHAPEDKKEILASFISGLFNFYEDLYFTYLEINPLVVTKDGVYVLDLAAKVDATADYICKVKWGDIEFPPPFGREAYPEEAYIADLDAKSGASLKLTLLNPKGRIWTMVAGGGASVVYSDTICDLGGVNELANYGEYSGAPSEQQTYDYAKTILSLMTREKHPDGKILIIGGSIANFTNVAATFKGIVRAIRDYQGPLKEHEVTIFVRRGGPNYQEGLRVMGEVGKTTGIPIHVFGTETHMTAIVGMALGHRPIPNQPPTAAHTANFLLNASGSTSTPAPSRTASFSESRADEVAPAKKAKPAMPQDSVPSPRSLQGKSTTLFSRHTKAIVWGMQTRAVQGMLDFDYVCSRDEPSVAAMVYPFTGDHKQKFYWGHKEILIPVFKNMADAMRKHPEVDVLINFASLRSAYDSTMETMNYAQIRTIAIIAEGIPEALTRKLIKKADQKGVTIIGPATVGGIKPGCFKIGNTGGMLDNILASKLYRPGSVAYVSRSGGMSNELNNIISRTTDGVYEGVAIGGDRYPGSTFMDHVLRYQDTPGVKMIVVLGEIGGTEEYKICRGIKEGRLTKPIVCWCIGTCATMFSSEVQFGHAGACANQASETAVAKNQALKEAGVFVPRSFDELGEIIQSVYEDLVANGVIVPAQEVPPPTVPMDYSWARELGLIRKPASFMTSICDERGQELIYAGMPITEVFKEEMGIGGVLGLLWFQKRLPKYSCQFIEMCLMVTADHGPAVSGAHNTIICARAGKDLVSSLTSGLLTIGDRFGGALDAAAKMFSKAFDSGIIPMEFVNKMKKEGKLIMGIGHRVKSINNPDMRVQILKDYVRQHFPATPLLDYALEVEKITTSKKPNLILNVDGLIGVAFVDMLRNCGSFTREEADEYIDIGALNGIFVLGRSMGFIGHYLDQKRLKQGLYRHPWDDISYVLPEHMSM
# [13] = humans; remark: listed apart in the source
# [14] = during exercise, untrained men and women
# [15] = in vivo; remark: listed apart in the source
# [16] = not given; remark: listed apart in the source
# [17] = during fatigue
# [18] = tested on: forebrain ischemia; conditions: ischemia maintained for 10 minutes
# [19] = stroke patients
# [20] = elderly patients
# [21] = patients with mild to moderate psychosyndromes such as dementia
# [22] = healthy women, three-day supplementation
# [23] = rat, administration of NOPE
# [24] = obese rats
# glutamate dehydrogenase, sequence (P00367 54-558): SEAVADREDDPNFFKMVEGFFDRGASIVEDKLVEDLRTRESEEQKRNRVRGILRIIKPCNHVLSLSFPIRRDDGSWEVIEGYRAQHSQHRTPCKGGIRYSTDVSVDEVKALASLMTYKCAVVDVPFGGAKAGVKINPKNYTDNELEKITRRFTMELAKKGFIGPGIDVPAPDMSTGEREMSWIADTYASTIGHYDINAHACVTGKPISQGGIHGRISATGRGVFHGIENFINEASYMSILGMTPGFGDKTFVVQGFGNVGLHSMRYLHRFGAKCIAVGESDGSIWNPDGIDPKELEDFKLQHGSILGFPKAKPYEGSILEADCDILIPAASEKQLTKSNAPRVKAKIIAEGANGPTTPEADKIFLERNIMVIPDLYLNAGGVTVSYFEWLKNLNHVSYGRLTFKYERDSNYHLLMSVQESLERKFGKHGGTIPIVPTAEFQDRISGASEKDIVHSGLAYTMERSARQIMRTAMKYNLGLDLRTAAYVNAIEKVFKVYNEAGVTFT
molecule,measurement,setting,value
CC1=C(/C=C/C(C)=C/C=C/C(C)=C/C=C/C=C(C)/C=C/C=C(C)/C=C/C2=C(C)C(=O)[C@@H](O)CC2(C)C)C(C)(C)C[C@H](O)C1=O [Astaxanthin],exercise-induced muscle damage,[1],attenuate exercise-induced muscle damage
same,safety,[2],safe
same,5-alpha-reductase inhibition,[3],inhibiting 5-alpha-reductase
[Cr] [Chromium],lean mass,clinical,increase lean mass
same,body fat,combined with exercise,reduce body fat
same,HDL cholesterol,[4],increase HDL
"O=C(O[C@@H]1Cc2c(O)cc(O)cc2O[C@@H]1c1cc(O)c(O)c(O)c1)c1cc(O)c(O)c(O)c1 [EGCG, (−)-Epigallocatechin-3-gallate]",antioxidant activity,[5],greater than many well known and established antioxidants
same,"food intake, body weight, cholesterol and triglycerides",[6],"effective at reducing food intake, body weight, cholesterol and triglycerides"
same,COMT inhibition,[7],inhibitor
same,glutamate dehydrogenase inhibition,[8],inhibitor of glutamate dehydrogenase
C/C=C(\C)C(=O)O[C@@H]1C[C@H]2[C@@H](CC=C3C[C@@H](O[C@H]4C[C@H](OC)[C@H](O[C@H]5C[C@H](OC)[C@H](O[C@@H]6O[C@H](C)[C@@H](O)[C@H](OC)[C@H]6O)[C@@H](C)O5)[C@@H](C)O4)CC[C@@]32C)[C@@]2(O)CC[C@H](C(C)=O)[C@@]12C [Example P57],food intake,[9],reduce food intake
same,ATP,[10],countered the reduction in ATP normally expected from calorie restriction
"O=C(O)CC(O)(C(=O)O)C(O)C(=O)O (stereo not drawn) [HCA, Hydroxycitric acid]",fatty acid synthesis and appetite,[11],inhibit fatty acid synthesis and repress appetite
same,ATP:citrate lyase inhibition,[12],competitive inhibitor
same,caloric intake,[13],reduce caloric intake
same,fat oxidation,[14],increase fat oxidation during exercise
same,serotonin levels,[15],significantly increased
N[C@@H](Cc1ccc(O)cc1)C(=O)O [Tyrosine],mood and cognitive performance,[16]; periods of stress,improve mood and cognitive performance
same,blood pressure and cognition,[16]; under stress,reduction in blood pressure in addition to cognitive improvement
same,mental performance,[17],improve
CCOC(=O)C1=C[C@]2(CC)CCCN3CCc4c(n1c1ccccc41)[C@@H]32 [Vinpocetine],brain cell damage,[18],prevent brain cell damage
same,cerebral blood flow,[19],increase cerebral blood flow
same,improvement in chronic cerebral dysfunction,[20],significant improvement
same,cognitive performance,[21],cognitive performance improved
same,memory,[22],improvement in the memory
N-olyl-phosphatidyl ethanolamine [NOPE],appetite and weight,[23],causes appetite suppression and subsequent weight loss
same,body weight,[24],lower body weight
